The values below come from PubChem BioAssay (NCI).

Some test systems named below: SF-268 CNS; UACC-62 melanoma; OVCAR-8 ovarian; ACHN renal; U251 CNS; CAKI-1 renal; TK-10 renal; MOLT-4 leukemia; PC-3 prostate; RPMI-8226 leukemia.
Common to all, as to assay: NCI tumour cell line growth inhibition, 48 h

Where “and” joins values, the source holds several entries; their conditions need not be identical. Equal entries are not always repeated.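 Five compound concentrations were applied to cells in 96-well plates for 48 hours; endpoints were derived by simple linear interpolation of the resulting dose-response curve. Here, GI50 denotes the concentration required for 50% inhibition of growth. At the TGI there is no net growth.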

Consider `O=c1cc(-c2cccc(F)c2)[nH]c2cc3c(cc12)OCO3`, for which the GI50 with SF-268 CNS is 658 nM; in the assay on OVCAR-8 ovarian it was 286 nM; in the assay on ACHN renal it was 432 nM; in the assay on U251 CNS, 268 nM; with TK-10 renal, 4.71 µM; in the assay on MOLT-4 leukemia, 799 nM. Besides, the TGI was 75 µM and > 58.1 µM in the assay with SF-268 CNS; over 64.9 µM in the assay with UACC-62 melanoma; 5.02 µM and 1.55 µM with OVCAR-8 ovarian; 75 µM and > 59.5 µM in the assay with ACHN renal; 9.58 µM and 49.1 µM in the assay with U251 CNS; over 53.3 µM with CAKI-1 renal. Also, the TGI in the assay with TK-10 renal was 75 µM and 44 µM; in the assay on MOLT-4 leukemia, 75 µM and > 16.8 µM; in the assay on PC-3 prostate it was over 89.5 µM.

For `COc1cc2c(c3c1C=CCO3)C(=O)c1ccccc1C2=O`, the TGI with SF-268 CNS, in the assay with UACC-62 melanoma, in the assay with OVCAR-8 ovarian, with ACHN renal, in the assay with U251 CNS and in the assay with RPMI-8226 leukemia was over 100 µM throughout. Moreover, the TGI in the assay on TK-10 renal is over 100 µM; in the assay on MOLT-4 leukemia, 79.2 µM.

As to `CCCCCCCCCCCCC(=O)OC(c1cnco1)c1nc(C(O)CC(O)C(O)C(C)O)co1` (stereo unspecified), the GI50 was 4560 nM with SF-268 CNS; 896 nM in the assay with UACC-62 melanoma; 849 nM in the assay with OVCAR-8 ovarian; 6380 nM in the assay on ACHN renal; 720 nM in the assay with U251 CNS; 694 nM in the assay with RPMI-8226 leukemia. Further, the GI50 with CAKI-1 renal is 4960 nM; with TK-10 renal it was 5.04 µM; with MOLT-4 leukemia, 537 nM. The TGI in the assay with SF-268 CNS was over 47.3 µM; in the assay with UACC-62 melanoma, 2.87 µM; with OVCAR-8 ovarian, over 55.7 µM; in the assay on ACHN renal, over 71.9 µM; with U251 CNS it was over 62.8 µM; with RPMI-8226 leukemia, 29.2 µM. The TGI with CAKI-1 renal is over 55.3 µM; with TK-10 renal, over 76.5 µM; in the assay on MOLT-4 leukemia, 5.14 µM.

`CCOC(=O)C1=C(C)Nc2ccccc2S1`: the TGI with SF-268 CNS, in the assay on UACC-62 melanoma, with ACHN renal, in the assay on U251 CNS, in the assay on RPMI-8226 leukemia and in the assay on CAKI-1 renal was over 100 µM throughout. Besides, the TGI in the assay with TK-10 renal and in the assay on MOLT-4 leukemia was over 100 µM in each case.

Consider `CCC(C)C1NC(=O)c2nc(oc2-c2ccccc2)-c2csc(n2)-c2csc(n2)-c2nc(oc2C)-c2coc(n2)CNC(=O)C(C(C)CC)NC1=O` (stereo unspecified), for which the GI50 in the assay on SF-268 CNS is 24.9 nM; in the assay on OVCAR-8 ovarian, 21.6 nM; in the assay with ACHN renal it was 18.8 nM; in the assay with U251 CNS it was 12.6 nM; in the assay with CAKI-1 renal, 37.1 nM; in the assay with PC-3 prostate, under 13.7 nM. Further, the TGI was 0.154 µM in the assay with SF-268 CNS; 0.182 µM in the assay with OVCAR-8 ovarian; 0.114 µM in the assay on ACHN renal; 0.0492 µM with U251 CNS; 0.151 µM in the assay on CAKI-1 renal; 0.116 µM in the assay with PC-3 prostate.

For `COc1cc2c3c(cccc3c1)C(=O)N(CCN1CCCC1)C2=O`, the GI50 in the assay with SF-268 CNS was 2480 nM; in the assay with UACC-62 melanoma, 1790 nM; in the assay on OVCAR-8 ovarian, 1660 nM; in the assay with ACHN renal, 764 nM; in the assay with U251 CNS, 2750 nM; with CAKI-1 renal it was 2560 nM. The GI50 in the assay with TK-10 renal was 24.8 µM; with MOLT-4 leukemia it was 3090 nM; in the assay on PC-3 prostate, 2910 nM. In addition, the TGI was 9.06 µM in the assay on SF-268 CNS; 3.71 µM in the assay on UACC-62 melanoma; over 100 µM with OVCAR-8 ovarian; over 100 µM in the assay with ACHN renal; 9.59 µM in the assay on U251 CNS; over 100 µM in the assay on CAKI-1 renal. Further, the figures for the TGI with TK-10 renal, with MOLT-4 leukemia and in the assay on PC-3 prostate were over 100 µM, over 100 µM and 11.9 µM, respectively.

As for `O=[N+]([O-])[C@@H]1C2C=CC(C2)[C@H]1Cl` (stereo partly specified), the TGI in the assay on SF-268 CNS, in the assay with UACC-62 melanoma, with OVCAR-8 ovarian, with ACHN renal, in the assay with U251 CNS and in the assay with RPMI-8226 leukemia was over 100 µM throughout. Moreover, the TGI in the assay with CAKI-1 renal, in the assay with TK-10 renal and in the assay with MOLT-4 leukemia was over 100 µM in each case.

`CSC1=NC=CCN1C`: the TGI in the assay on SF-268 CNS, in the assay with UACC-62 melanoma, in the assay on OVCAR-8 ovarian, in the assay on ACHN renal, in the assay on U251 CNS and with RPMI-8226 leukemia was over 100 µM in each case. Moreover, the TGI with CAKI-1 renal, in the assay with TK-10 renal and in the assay with MOLT-4 leukemia was over 100 µM in each case.

Consider `C=CCSC[C@H](NC(=O)COc1ccccc1)C(=O)NC(C(=O)OCc1ccc([N+](=O)[O-])cc1)=C(C)C`, for which the TGI in the assay on SF-268 CNS, in the assay on UACC-62 melanoma, with OVCAR-8 ovarian, with ACHN renal, in the assay with U251 CNS and in the assay on RPMI-8226 leukemia was over 100 µM each time. The same compound displayed a TGI with MOLT-4 leukemia of 88.1 µM.

Take `O=C(c1ccc2ccccc2c1)c1c(C(F)(F)F)n([O-])c2cc(Cl)c(Cl)cc2[n+]1=O`: the GI50 with SF-268 CNS was 1850 nM; with UACC-62 melanoma, 1610 nM; with OVCAR-8 ovarian it was 1610 nM; with ACHN renal, 1590 nM; with U251 CNS, 1610 nM; in the assay with RPMI-8226 leukemia, 1580 nM. Also, the GI50 in the assay with CAKI-1 renal was 1350 nM; with TK-10 renal, 1.77 µM; in the assay on MOLT-4 leukemia, 1140 nM. The TGI in the assay on SF-268 CNS amounted to 3.96 µM; in the assay with UACC-62 melanoma, 2.96 µM; with OVCAR-8 ovarian, 3.27 µM; in the assay on ACHN renal, 2.94 µM; with U251 CNS, 2.96 µM; in the assay on RPMI-8226 leukemia, 3.85 µM. In addition, the results for the TGI with CAKI-1 renal, with TK-10 renal and with MOLT-4 leukemia were 2.63 µM, 3.15 µM and 2.84 µM, respectively.

`CCOc1ccc(NC(=O)CC2Sc3ccccc3NC2=O)cc1` (stereo unspecified): the TGI with SF-268 CNS was over 100 µM; in the assay on UACC-62 melanoma, over 100 µM; in the assay with OVCAR-8 ovarian, 42.9 µM; in the assay with ACHN renal, over 100 µM; in the assay on U251 CNS, over 100 µM; in the assay on RPMI-8226 leukemia, over 100 µM. In addition, the TGI in the assay on CAKI-1 renal, in the assay on TK-10 renal and with MOLT-4 leukemia was over 100 µM each time.
